Measured values published in patent publication US9783537B2, “3-(4-ethylnylphenyl) pyridopyrimidinone compounds and process for preparation thereof useful as potential anticancer agents” (Council of Scientific & Industrial Research, priority 2013, dated 2017).

system: SK-MEL-2; assay: SRB 48 h growth assay, Melanoma SK-MEL-2; type: cell-based, human; details: Homo sapiens, SK-MEL-2, Melanoma, read-out: Log10 LC50 (converted)

Compound | CC50
C#Cc1ccc(-n2c(/C=C/c3ccc(O)cc3)nc3ncccc3c2=O)cc1 [4b, (E)-3-(4-Ethynylphenyl)-2-(4-hydroxystyryl)pyrido[2,3-d]pyrimidin-4(3H)-one] | > 100 µM

same assay, conditions: SK-MEL-2, Melanoma

Compound | Log10 TGI50
C#Cc1ccc(-n2c(/C=C/c3ccc(O)cc3)nc3ncccc3c2=O)cc1 [4b, (E)-3-(4-Ethynylphenyl)-2-(4-hydroxystyryl)pyrido[2,3-d]pyrimidin-4(3H)-one] | −4.39

system: HCC-2998; assay: SRB 48 h growth assay, Colon HCC-2998; type: cell-based, human; details: HCC-2998, Colon

Compound | Log10 TGI50
C#Cc1ccc(-n2c(/C=C/c3ccc(O)cc3)nc3ncccc3c2=O)cc1 [4b, (E)-3-(4-Ethynylphenyl)-2-(4-hydroxystyryl)pyrido[2,3-d]pyrimidin-4(3H)-one] | >−4.00

same assay, conditions: Homo sapiens, HCC-2998, Colon, read-out: Growth Inhibition GI50

Compound | GI50
C#Cc1ccc(-n2c(/C=C/c3ccc(O)cc3)nc3ncccc3c2=O)cc1 [4b, (E)-3-(4-Ethynylphenyl)-2-(4-hydroxystyryl)pyrido[2,3-d]pyrimidin-4(3H)-one] | 25.7 µM

same assay, conditions: Homo sapiens, HCC-2998, Colon, read-out: Log10 GI50 (converted)

Compound | GI50
C#Cc1ccc(-n2c(/C=C/c3ccc(O)cc3)nc3ncccc3c2=O)cc1 [4b, (E)-3-(4-Ethynylphenyl)-2-(4-hydroxystyryl)pyrido[2,3-d]pyrimidin-4(3H)-one] | 25.7 µM

same assay, conditions: Homo sapiens, HCC-2998, Colon, read-out: Log10 LC50 (converted)

Compound | CC50
C#Cc1ccc(-n2c(/C=C/c3ccc(O)cc3)nc3ncccc3c2=O)cc1 [4b, (E)-3-(4-Ethynylphenyl)-2-(4-hydroxystyryl)pyrido[2,3-d]pyrimidin-4(3H)-one] | > 100 µM

system: OVCAR-5; assay: SRB 48 h growth assay, Ovarian OVCAR-5; type: cell-based, human; details: Homo sapiens, OVCAR-5, Ovarian, read-out: Growth Inhibition GI50

Compound | GI50
C#Cc1ccc(-n2c(/C=C/c3ccc(O)cc3)nc3ncccc3c2=O)cc1 [4b, (E)-3-(4-Ethynylphenyl)-2-(4-hydroxystyryl)pyrido[2,3-d]pyrimidin-4(3H)-one] | 32.3 µM

same assay, conditions: Homo sapiens, OVCAR-5, Ovarian, read-out: Log10 GI50 (converted)

Compound | GI50
C#Cc1ccc(-n2c(/C=C/c3ccc(O)cc3)nc3ncccc3c2=O)cc1 [4b, (E)-3-(4-Ethynylphenyl)-2-(4-hydroxystyryl)pyrido[2,3-d]pyrimidin-4(3H)-one] | 32.4 µM

same assay, conditions: Homo sapiens, OVCAR-5, Ovarian, read-out: Log10 LC50 (converted)

Compound | CC50
C#Cc1ccc(-n2c(/C=C/c3ccc(O)cc3)nc3ncccc3c2=O)cc1 [4b, (E)-3-(4-Ethynylphenyl)-2-(4-hydroxystyryl)pyrido[2,3-d]pyrimidin-4(3H)-one] | > 100 µM

same assay, conditions: OVCAR-5, Ovarian

Compound | Log10 TGI50
C#Cc1ccc(-n2c(/C=C/c3ccc(O)cc3)nc3ncccc3c2=O)cc1 [4b, (E)-3-(4-Ethynylphenyl)-2-(4-hydroxystyryl)pyrido[2,3-d]pyrimidin-4(3H)-one] | >−4.00

system: SR; assay: SRB 48 h growth assay, Leukemia SR; type: cell-based, human; details: not given

Compound | Log10 TGI50
C#Cc1ccc(-n2c(/C=C/c3ccc(O)cc3)nc3ncccc3c2=O)cc1 [4b, (E)-3-(4-Ethynylphenyl)-2-(4-hydroxystyryl)pyrido[2,3-d]pyrimidin-4(3H)-one] | >−4.00

same assay, conditions: Homo sapiens, read-out: Growth Inhibition GI50

Compound | GI50
C#Cc1ccc(-n2c(/C=C/c3ccc(O)cc3)nc3ncccc3c2=O)cc1 [4b, (E)-3-(4-Ethynylphenyl)-2-(4-hydroxystyryl)pyrido[2,3-d]pyrimidin-4(3H)-one] | 3.54 µM

same assay, conditions: Homo sapiens, read-out: Log10 GI50 (converted)

Compound | GI50
C#Cc1ccc(-n2c(/C=C/c3ccc(O)cc3)nc3ncccc3c2=O)cc1 [4b, (E)-3-(4-Ethynylphenyl)-2-(4-hydroxystyryl)pyrido[2,3-d]pyrimidin-4(3H)-one] | 3.55 µM

same assay, conditions: Homo sapiens, read-out: Log10 LC50 (converted)

Compound | CC50
C#Cc1ccc(-n2c(/C=C/c3ccc(O)cc3)nc3ncccc3c2=O)cc1 [4b, (E)-3-(4-Ethynylphenyl)-2-(4-hydroxystyryl)pyrido[2,3-d]pyrimidin-4(3H)-one] | > 100 µM

system: CAKI-1; assay: SRB 48 h growth assay, Renal CAKI-1; type: cell-based, human; details: CAKI-1, Renal

Compound | Log10 TGI50
C#Cc1ccc(-n2c(/C=C/c3ccc(O)cc3)nc3ncccc3c2=O)cc1 [4b, (E)-3-(4-Ethynylphenyl)-2-(4-hydroxystyryl)pyrido[2,3-d]pyrimidin-4(3H)-one] | >−4.00

same assay, conditions: Homo sapiens, CAKI-1, Renal, read-out: Growth Inhibition GI50

Compound | GI50
C#Cc1ccc(-n2c(/C=C/c3ccc(O)cc3)nc3ncccc3c2=O)cc1 [4b, (E)-3-(4-Ethynylphenyl)-2-(4-hydroxystyryl)pyrido[2,3-d]pyrimidin-4(3H)-one] | 4.15 µM

same assay, conditions: Homo sapiens, CAKI-1, Renal, read-out: Log10 GI50 (converted)

Compound | GI50
C#Cc1ccc(-n2c(/C=C/c3ccc(O)cc3)nc3ncccc3c2=O)cc1 [4b, (E)-3-(4-Ethynylphenyl)-2-(4-hydroxystyryl)pyrido[2,3-d]pyrimidin-4(3H)-one] | 4.17 µM

same assay, conditions: Homo sapiens, CAKI-1, Renal, read-out: Log10 LC50 (converted)

Compound | CC50
C#Cc1ccc(-n2c(/C=C/c3ccc(O)cc3)nc3ncccc3c2=O)cc1 [4b, (E)-3-(4-Ethynylphenyl)-2-(4-hydroxystyryl)pyrido[2,3-d]pyrimidin-4(3H)-one] | > 100 µM

system: SN12C; assay: SRB 48 h growth assay, Renal SN12C; type: cell-based, human; details: not given

Compound | Log10 TGI50
C#Cc1ccc(-n2c(/C=C/c3ccc(O)cc3)nc3ncccc3c2=O)cc1 [4b, (E)-3-(4-Ethynylphenyl)-2-(4-hydroxystyryl)pyrido[2,3-d]pyrimidin-4(3H)-one] | >−4.00

same assay, conditions: Homo sapiens, read-out: Growth Inhibition GI50

Compound | GI50
C#Cc1ccc(-n2c(/C=C/c3ccc(O)cc3)nc3ncccc3c2=O)cc1 [4b, (E)-3-(4-Ethynylphenyl)-2-(4-hydroxystyryl)pyrido[2,3-d]pyrimidin-4(3H)-one] | 5.16 µM

same assay, conditions: Homo sapiens, read-out: Log10 GI50 (converted)

Compound | GI50
C#Cc1ccc(-n2c(/C=C/c3ccc(O)cc3)nc3ncccc3c2=O)cc1 [4b, (E)-3-(4-Ethynylphenyl)-2-(4-hydroxystyryl)pyrido[2,3-d]pyrimidin-4(3H)-one] | 5.13 µM

same assay, conditions: Homo sapiens, read-out: Log10 LC50 (converted)

Compound | CC50
C#Cc1ccc(-n2c(/C=C/c3ccc(O)cc3)nc3ncccc3c2=O)cc1 [4b, (E)-3-(4-Ethynylphenyl)-2-(4-hydroxystyryl)pyrido[2,3-d]pyrimidin-4(3H)-one] | > 100 µM

system: MALME-3M; assay: SRB 48 h growth assay, Melanoma MALME-3M; type: cell-based, human; details: not given

Compound | Log10 TGI50
C#Cc1ccc(-n2c(/C=C/c3ccc(O)cc3)nc3ncccc3c2=O)cc1 [4b, (E)-3-(4-Ethynylphenyl)-2-(4-hydroxystyryl)pyrido[2,3-d]pyrimidin-4(3H)-one] | >−4.00

same assay, conditions: Homo sapiens, read-out: Growth Inhibition GI50

Compound | GI50
C#Cc1ccc(-n2c(/C=C/c3ccc(O)cc3)nc3ncccc3c2=O)cc1 [4b, (E)-3-(4-Ethynylphenyl)-2-(4-hydroxystyryl)pyrido[2,3-d]pyrimidin-4(3H)-one] | 5.13 µM

same assay, conditions: Homo sapiens, read-out: Log10 GI50 (converted)

Compound | GI50
C#Cc1ccc(-n2c(/C=C/c3ccc(O)cc3)nc3ncccc3c2=O)cc1 [4b, (E)-3-(4-Ethynylphenyl)-2-(4-hydroxystyryl)pyrido[2,3-d]pyrimidin-4(3H)-one] | 5.13 µM

same assay, conditions: Homo sapiens, read-out: Log10 LC50 (converted)

Compound | CC50
C#Cc1ccc(-n2c(/C=C/c3ccc(O)cc3)nc3ncccc3c2=O)cc1 [4b, (E)-3-(4-Ethynylphenyl)-2-(4-hydroxystyryl)pyrido[2,3-d]pyrimidin-4(3H)-one] | > 100 µM

system: A498; assay: SRB 48 h growth assay, Renal A498; type: cell-based, human; details: not given

Compound | Log10 TGI50
C#Cc1ccc(-n2c(/C=C/c3ccc(O)cc3)nc3ncccc3c2=O)cc1 [4b, (E)-3-(4-Ethynylphenyl)-2-(4-hydroxystyryl)pyrido[2,3-d]pyrimidin-4(3H)-one] | −5.16

same assay, conditions: Homo sapiens, read-out: Growth Inhibition GI50

Compound | GI50
C#Cc1ccc(-n2c(/C=C/c3ccc(O)cc3)nc3ncccc3c2=O)cc1 [4b, (E)-3-(4-Ethynylphenyl)-2-(4-hydroxystyryl)pyrido[2,3-d]pyrimidin-4(3H)-one] | 2.48 µM

same assay, conditions: Homo sapiens, read-out: Log10 GI50 (converted)

Compound | GI50
C#Cc1ccc(-n2c(/C=C/c3ccc(O)cc3)nc3ncccc3c2=O)cc1 [4b, (E)-3-(4-Ethynylphenyl)-2-(4-hydroxystyryl)pyrido[2,3-d]pyrimidin-4(3H)-one] | 2.45 µM

same assay, conditions: Homo sapiens, read-out: Log10 LC50 (converted)

Compound | CC50
C#Cc1ccc(-n2c(/C=C/c3ccc(O)cc3)nc3ncccc3c2=O)cc1 [4b, (E)-3-(4-Ethynylphenyl)-2-(4-hydroxystyryl)pyrido[2,3-d]pyrimidin-4(3H)-one] | > 100 µM
